From US4319028A, “7-(2-(Substituted benzoyl)amino)acetamido)cephalosporins” (Eli Lilly and Company, priority 1976, dated 1982)
In brackets after ≈: the same amount, converted by molar mass. Where two headings read alike, the source gives them in different places.

Assays:
Pseudomonas Aeruginosa = assay: Antibiotic activity (MIC), Gradient Plate in vitro method, Pseudomonas Aeruginosa; format: cell-based; settings: read-out: Minimum Inhibitory Concentration
Excerpt: (§1) The values in the table are the minimum inhibitory concentrations (MIC) for the test compounds against the indicated microorganisms. The MIC values were obtained in the Gradient Plate in vitro method for determining antibiotic activity.

[1] = Water solubility (inferred from low yield); format: physicochemical; settings: inferred from low yield of aqueous isolation
Klebsiella pneumoniae = assay: Antibiotic activity (MIC), Gradient Plate in vitro method, Klebsiella pneumoniae; format: cell-based; settings: read-out: Minimum Inhibitory Concentration
Excerpt: as §1

Serratia marcescens = assay: Antibiotic activity (MIC), Gradient Plate in vitro method, Serratia marcescens; format: cell-based; settings: read-out: Minimum Inhibitory Concentration
Excerpt: as §1, with “The antibiotic activity of the cephalosporin compounds of the present invention is illustrated by the data presented in Table I for representative compounds. The values” for “The values”

[2] = system: X466 (methicillin resistant Staphylococcus); assay: Antibiotic activity (MIC), Gradient Plate in vitro method, X466; format: cell-based; settings: read-out: Minimum Inhibitory Concentration
Excerpt: The antibiotic activity of the cephalosporin compounds of the present invention is illustrated by the data presented in Table I for representative compounds. The values in the table are the minimum inhibitory concentrations (MIC) for the test compounds against the indicated microorganisms. The MIC values were obtained in the Gradient Plate in vitro method for determining antibiotic activity. […]

[3] = system: V84 (penicillin resistant Staphylococcus); assay: Antibiotic activity (MIC), Gradient Plate in vitro method, V84; format: cell-based; settings: read-out: Minimum Inhibitory Concentration
Excerpt: (§2) The antibiotic activity of the cephalosporin compounds of the present invention is illustrated by the data presented in Table I for representative compounds. The values in the table are the minimum inhibitory concentrations (MIC) for the test compounds against the indicated microorganisms. The MIC values were obtained in the Gradient Plate in vitro method for determining antibiotic activity.
(§3) ^1 Test organisms V41, V32, and V84 are penicillin resistant

Escherichia coli = assay: Antibiotic activity (MIC), Gradient Plate in vitro method, Escherichia coli; format: cell-based; settings: read-out: Minimum Inhibitory Concentration
Excerpt: as §1

Shigella sp. = assay: Antibiotic activity (MIC), Gradient Plate in vitro method, Shigella sp.; format: cell-based; settings: read-out: Minimum Inhibitory Concentration
Excerpt: as §2

[4] = system: V41 (penicillin resistant Staphylococcus); assay: Antibiotic activity (MIC), Gradient Plate in vitro method, V41; format: cell-based; settings: read-out: Minimum Inhibitory Concentration
Excerpt: as §2, §3

Aerobacter Aerogenes = assay: Antibiotic activity (MIC), Gradient Plate in vitro method, Aerobacter Aerogenes; format: cell-based; settings: Klebsiella aerogenes, read-out: Minimum Inhibitory Concentration
Excerpt: as §1

[5] = system: V32 (penicillin resistant Staphylococcus); assay: Antibiotic activity (MIC), Gradient Plate in vitro method, V32; format: cell-based; settings: read-out: Minimum Inhibitory Concentration
Excerpt: as §2, §3

Salmonella heidelberg = assay: Antibiotic activity (MIC), Gradient Plate in vitro method, Salmonella heidelberg; format: cell-based; settings: Salmonella enterica, read-out: Minimum Inhibitory Concentration
Excerpt: as §1

Titration (pKa) = format: physicochemical; settings: 66% dmf-34% h2o, titration (66% DMF-34% H2O)
[6] = Gradient Plate in vitro, V84, penicillin resistant Staphylococcus
[7] = Gradient Plate in vitro, V41, penicillin resistant Staphylococcus
[8] = Gradient Plate in vitro, V32, penicillin resistant Staphylococcus
[9] = first pKa, read-out: pKa (first value)
[10] = second pKa, read-out: pKa (second value)
[11] = third pKa, read-out: pKa (third value)

Structure (SMILES)	MIC (Pseudomonas Aeruginosa) [µg/mL]	water solubility [1]	MIC (Klebsiella pneumoniae) [µg/mL]	MIC (Serratia marcescens) [µg/mL]	MIC [2] [µg/mL]	MIC ([3]; Staphylococcus) [µg/mL]	MIC (Escherichia coli) [µg/mL]	MIC (Shigella sp.) [µg/mL]	MIC ([4]; Staphylococcus) [µg/mL]	MIC (Aerobacter Aerogenes) [µg/mL]	MIC ([5]; Staphylococcus) [µg/mL]	MIC (Salmonella heidelberg) [µg/mL]	MIC [3, 6] [µg/mL]	MIC [4, 7] [µg/mL]	MIC [5, 8] [µg/mL]	pKa (Titration (pKa); [9])	pKa (Titration (pKa); [10])	pKa (Titration (pKa); [11])
Cc1nnc(SCC2=C(C(=O)O)N3C(=O)C(NC(=O)[C@H](NC(=O)c4ccc(O)cc4)c4ccc(O)cc4)C3SC2)s1 (stereo partly drawn) [Example 12, 7-[D-[2-(4-Hydroxyphenyl)-2-[(4-hydroxybenzoyl)amino]acetyl]-amino]-3-[[(5-methyl-1,3,4-thiadiazol-2-yl)thio]methyl]-3-cephem-4-carboxylic acid]	> 200	quite water soluble	29.5 (≈ 48.1 µM)	> 200	84 (≈ 137 µM)	1 (≈ 1.63 µM)	50 (≈ 81.5 µM)	13.9 (≈ 22.6 µM)	1 (≈ 1.63 µM)	40 (≈ 65.2 µM)	1 (≈ 1.63 µM)	33 (≈ 53.8 µM)	–	–	–	–	–	–
Cc1nnc(SCC2=C(C(=O)O)N3C(=O)C(NC(=O)[C@H](NC(=O)c4cc(O)c(O)c(O)c4O)c4ccc(O)cc4)C3SC2)s1 (stereo partly drawn) [Example 14, 7-[D-[2-(4-Hydroxyphenyl)-2-[(2,3,4,5-tetrahydroxybenzoyl)amino]acetyl]amino]-3-[[(1-methyl-1,3,4-thiadiazol-2-yl)thio]methyl]-3-cephem-4-carboxylic acid]	92 (≈ 139 µM)	–	5 (≈ 7.56 µM)	> 200	134 (≈ 203 µM)	–	10.1 (≈ 15.3 µM)	5.7 (≈ 8.61 µM)	–	9.1 (≈ 13.8 µM)	–	3 (≈ 4.53 µM)	6.2 (≈ 9.37 µM)	7.2 (≈ 10.9 µM)	7.1 (≈ 10.7 µM)	4.98	7.63	9.69
Cn1nnnc1SCC1=C(C(=O)O)N2C(=O)C(NC(=O)[C@H](NC(=O)c3cc(O)ccc3O)c3ccc(O)cc3)C2SC1 (stereo partly drawn) [Example 15, 7-[D-[2-(4-Hydroxyphenyl)-2-[(2,5-dihydroxybenzoyl)-amino]acetyl]amino]-3-[[(1-methyltetrazol-5-yl)thio]-methyl]-3-cephem-4-carboxylic acid]	> 200	–	32.2 (≈ 52.5 µM)	> 200	> 200	–	28 (≈ 45.6 µM)	26.5 (≈ 43.2 µM)	–	43.5 (≈ 70.9 µM)	–	17.8 (≈ 29 µM)	10 (≈ 16.3 µM)	15 (≈ 24.4 µM)	13 (≈ 21.2 µM)	5.08	11	12.5
Cn1nnnc1SCC1=C(C(=O)O)N2C(=O)C(NC(=O)[C@H](NC(=O)c3cc(O)cc(O)c3)c3ccc(O)cc3)C2SC1 (stereo partly drawn) [Example 16, 7-[D-[2-(4-Hydroxyphenyl)-2-[(3,5-dihydroxybenzoyl)-amino]acetyl]amino]-3-[[(1-methyltetrazol-5-yl)thio]-methyl]-3-cephem-4-carboxylic acid]	> 200	–	17.4 (≈ 28.4 µM)	> 200	112 (≈ 183 µM)	–	16.5 (≈ 26.9 µM)	9.8 (≈ 16 µM)	–	22 (≈ 35.9 µM)	–	8.1 (≈ 13.2 µM)	2.7 (≈ 4.4 µM)	4.5 (≈ 7.33 µM)	1.9 (≈ 3.1 µM)	5.22	11.7	≥ 12
Cn1nnnc1SCC1=C(C(=O)O)N2C(=O)C(NC(=O)[C@H](NC(=O)c3ccc(O)cc3O)c3ccc(O)cc3)C2SC1 (stereo partly drawn) [Example 17, 7-[D-[2-(4-Hydroxyphenyl)-2-[(2,4-dihydroxybenzoyl)-amino]-acetyl]amino]-3-[[(1-methyltetrazol-5-yl)thio]-methyl]-3-cephem-4-carboxylic acid]	92 (≈ 150 µM)	–	15.5 (≈ 25.3 µM)	> 200	102 (≈ 166 µM)	–	18 (≈ 29.3 µM)	9.2 (≈ 15 µM)	4 (≈ 6.52 µM)	36 (≈ 58.7 µM)	–	14 (≈ 22.8 µM)	2.4 (≈ 3.91 µM)	–	3.5 (≈ 5.7 µM)	4.97	9.58	12.1
O=C(O)C1=C(Cl)CSC2C(NC(=O)[C@H](NC(=O)c3cccc(O)c3O)c3ccccc3)C(=O)N12 (stereo partly drawn) [Example 18, 7-[D-[2-Phenyl-2-[(2,3-dihydroxybenzoyl)amino]acetyl]-amino]-3-chloro-3-cephem-4-carboxylic acid]	> 200	–	7 (≈ 13.9 µM)	> 200	> 200	–	82 (≈ 163 µM)	18 (≈ 35.7 µM)	–	50 (≈ 99.2 µM)	–	1 (≈ 1.98 µM)	14.2 (≈ 28.2 µM)	24 (≈ 47.6 µM)	21.5 (≈ 42.7 µM)	4.55	3.84	–
CC(=O)OCC1=C(C(=O)O)N2C(=O)C(NC(=O)C(NC(=O)c3cccc(O)c3O)c3ccccc3)C2SC1 [Example 19, 7-[D-[2-Phenyl-2-[(2,3-dihydroxybenzoyl)amino]acetyl]-amino]-3-acetoxymethyl-3-cephem-4-carboxylic acid]	56 (≈ 103 µM)	–	7.4 (≈ 13.7 µM)	> 200	> 200	–	> 200	50 (≈ 92.3 µM)	–	> 200	–	1 (≈ 1.85 µM)	14.7 (≈ 27.1 µM)	17 (≈ 31.4 µM)	16.2 (≈ 29.9 µM)	5	8.72	–
NC(=O)OCC1=C(C(=O)O)N2C(=O)C(NC(=O)C(NC(=O)c3cccc(O)c3O)c3ccccc3)C2SC1 [Example 20, 7-[D-[2-Phenyl-2-[(2,3-dihydroxybenzoyl)amino]acetyl]-amino]-3-carbamoyloxymethyl-3-cephem-4-carboxylic acid]	140 (≈ 258 µM)	–	6.5 (≈ 12 µM)	> 200	> 200	–	74 (≈ 136 µM)	58 (≈ 107 µM)	–	76 (≈ 140 µM)	–	1 (≈ 1.84 µM)	6.1 (≈ 11.2 µM)	7.9 (≈ 14.6 µM)	7.4 (≈ 13.6 µM)	5.15	8.7	–
